{"source": "patent US8541033B2", "about": "“Production of human antibodies using NOD/SCID/γcnull mice” (Central Institute for Experimental Animals, priority 2000, dated 2013)", "key": {"SLB-1": {"tested_on": "SLB-1", "assay": "Effect of CXCR4 antagonist on in vivo growth of SLB-1 tumor in NOG mice", "settings": "7.5×10^7 cells inoculated, KRH-1636 0.14 mg/mouse intraperitoneally every day, 15 days", "description": "(§1) Using 3 samples of HTLV-1 leukemia derived cell lines [L=Leukemic cell lines: ED-40515(−), MT-1 and TL-Oml], 6 samples of HTLV-1 infected cell lines [IT=infected transformed cell lines: SLB-1, M8116, HUT-102, MT-2, MT-4 and TY9-31MT], 10^7-8 cells/0.5 mL were transplanted to NOG mice and NOD/Shi-scid mice subcutaneously at a left posterior auricle thereof, and to some of them subcutaneously at a gluteal region thereof. Then, the tumor size in the mice, tissue image, and the mice with, and those without, leukemia were chronologically compared for examination, and the relations between these and transcription factors such as NFkB or fluctuation of Tax protein were also analyzed.\n(§2) Assuming that effective tumor formation by 10^7 of ED-40515(−) in NOG mice was attributable to active neogenesis of tumoral vessels via CXCR4 of tumor cells, it has been expected that tumor formation would be inhibited as long as there was continuous administration of KRH-1636, a competitive agent of SDF-1 which was a ligand thereof in endothelial cells. However, in the case of ED-40515(−) and SLB-1 (histologically angiotropic) accompanied by bleeding, the mice formed tumors with sizes of 25×18×12 mm and 20×10×18 mm equivalent to those of non-treated group, even though KRH-1636 was intraperitoneally administered every day."}, "ED-40515(−)": {"tested_on": "ED-40515(−)", "assay": "Effect of CXCR4 antagonist on in vivo growth of ED-40515(−) tumor in NOG mice", "settings": "7.5×10^7 cells inoculated, KRH-1636 0.14 mg/mouse intraperitoneally every day, 15 days", "description": "as §1, §2"}}, "data": [{"smiles": "C[C@H](NC(=O)[C@H](CCCN=C(N)N)NC(=O)c1ccc(CNCc2ccccn2)cc1)c1cccc2ccccc12", "note": "[KRH-1636]", "values": [{"measurement": "Remarks (tumor)", "setting": "SLB-1", "value": "progressive large tumor"}, {"measurement": "Remarks (tumor)", "setting": "ED-40515(−)", "value": "progressive large tumor"}]}]}
